Reference: patent US11851391B2, “Antifungal compounds and methods of forming the same” (University of Kentucky Research Foundation, priority 2018, dated 2023)
≈ marks a conversion by molar mass, not a printed value. Read-outs that look alike come from different tables or passages of the source.

Legend:
[1] = tested on: C. albicans ATCC MYA-2310(S) (strain E); assay: MIC determination, in vitro antifungal assay (CLSI M27-A3); assay type: cell-based, Candida albicans; conditions: MIC-0, 48 h at 35° C.
Experimental: (§1) The activity of N,N′-diaryl-bishydrazones 7-22 was tested against a panel of seven strains of C. albicans: ATCC 10231(R) (A), ATCC 64124(R) (B), ATCC MYA-2876(S) (C), ATCC 90819(R) (D), ATCC MYA-2310(S) (E), ATCC MYA-1237(R) (F), and ATCC MYA-1003(R) (G). The activity of these bishydrazones 7-22 was also explored against a panel of three non-albicans Candida strains: C. glabrata ATCC 2001 (H), C. krusei ATCC 6258 (I), and C. parapsilosis ATCC 22019 (J). Finally, the activity of these bishydrazones 7-22 was explored against three Aspergillus strains: A. flavus ATCC MYA-3631 (K), A. nidulans ATCC 38163 (L), and A. terreus ATCC MYA-3633 (M).
(§2) Candida albicans ATCC 10231 (A), C. albicans ATCC 64124 (B), and C. albicans ATCC MYA-2876 (C) were kindly provided by Dr. Jon Y. Takemoto (Utah State University, Logan, UT, USA). C. albicans ATCC 90819 (D), C. albicans ATCC MYA-2310 (E), C. albicans ATCC MYA-1237 (F), C. albicans ATCC MYA-1003 (G), Candida glabrata ATCC 2001 (H), Candida krusei ATCC 6258 (I), Candida parapsilosis ATCC 22019 (J), Aspergillus flavus ATCC MYA-3631 (K), and Aspergillus terreus ATCC MYA-3633 (M) were obtained from the American Type Culture Collection (ATCC; Manassas, VA, USA). Aspergillus nidulans ATCC 38163 (L) was received from Dr. Jon S. Thorson (University of Kentucky, Lexington, KY, USA). Filamentous fungi and yeasts were cultivated at 35° C. in RPMI 1640 medium (with 1-glutamine, without sodium biocarbonate, Sigma-Aldrich, St. Louis, MO) buffered to a pH of 7.0 with 0.165 M morpholinepropanesulfonic acid (MOPS) buffer (Sigma-Aldrich).
(§3) The MIC values of compounds 7a-24c against yeast cells (strains A-J) were determined in 96-well plates as described in the CLSI document M27-A3 with minor modifications. A single colony of freshly prepared yeast cells was used to inoculate 5 mL of yeast extract peptone dextrose (YPD) broth prior to incubation overnight with shaking at 200 rpm at 35° C. From the actively growing yeast culture, 100 μL were then transferred to 900 μL of sterile ddH2O and re-adjusted to achieve OD600 of 0.12 (˜1×10^6 CFU/mL). The cell suspension was further diluted to achieve 2-4×10^3 CFU/mL in RPMI 1640 medium. […] The final concentration of DMSO was ensured to be <1.25% in all experiments. The MIC values for compounds 7a-24c and CAS were defined as the minimum drug concentration that yielded complete inhibition (also known as MIC-0).

[2] = tested on: C. albicans ATCC 64124(R) (strain B); assay: as above; assay type: cell-based, Candida albicans; conditions: strain B, MIC-0, 48 h at 35° C.
Experimental: as §1, §2, §3

[3] = tested on: C. albicans ATCC 90819(R) (strain D); assay: as above; assay type: cell-based, Candida albicans; conditions: Candida albicans, ATCC90819, 48 h, MIC-0, 48 h at 35° C., read-out: MIC
Experimental: as §1, §2, §3

[4] = tested on: C. albicans ATCC MYA-1237(R) (strain F); assay: as above; assay type: cell-based, Candida albicans; conditions: MIC-0, 48 h at 35° C.
Experimental: as §1, §2, §3

[5] = tested on: Candida albicans ATCC 10231(R) (strain A); assay: as above; assay type: cell-based; conditions: MIC-0 (no visible growth), 48 h at 35° C.
Experimental: as §1, §2, §3

[6] = tested on: Candida parapsilosis ATCC 22019 (strain J); assay: as above; assay type: cell-based; conditions: Lodderomyces parapsilosis, ATCC22019, 48 h, strain J; MIC-0; 48 h at 35° C.; read-out: MIC
Experimental: as §1, §2, §3

[7] = tested on: Candida glabrata ATCC 2001 (strain H); assay: as above; assay type: cell-based; conditions: MIC-0, 48 h at 35° C.
Experimental: as §1, §2
(§4) A single colony of freshly prepared yeast cells was used to inoculate 5 mL of yeast extract peptone dextrose (YPD) broth prior to incubation overnight with shaking at 200 rpm at 35° C. From the actively growing yeast culture, 100 μL were then transferred to 900 μL of sterile ddH2O and re-adjusted to achieve OD600 of 0.12 (˜1×10^6 CFU/mL). The cell suspension was further diluted to achieve 2-4×10^3 CFU/mL in RPMI 1640 medium. […] The final concentration of DMSO was ensured to be <1.25% in all experiments.

[8] = tested on: Candida krusei ATCC 6258 (strain I); assay: as above; assay type: cell-based; conditions: MIC-0, 48 h at 35° C.
Experimental: as §1, §2, §4

[9] = tested on: Aspergillus terreus ATCC MYA-3633 (strain M); assay: MIC determination against filamentous fungi (CLSI M38-A2); assay type: cell-based; conditions: Aspergillus terreus, 48 h, MIC-0, 48 h at 35° C., read-out: MIC
Experimental: as §1, §2
(§5) Similarly, the MIC values of compounds 7a-24c, as well as that of the two control drugs against filamentous fungi (strains K-M) were determined as previously described in CLSI document M38-A2. Spores were harvested from sporulating cultures growing on potato dextrose agar (PDA) by filtration through sterile glass wool and enumerated by using a hemocytometer to obtain the desired inoculum size. […] Spore suspensions were added to the wells to afford a final concentration of 5×10^5 CFU/mL. The plates were incubated at 35° C. for 48 h. The MIC values of compounds 7a-24c and CAS against filamentous fungi were based on the complete inhibition of growth when compared to the growth control (MIC-0). […] Each test was performed in triplicate.

[10] = tested on: Aspergillus flavus ATCC MYA-3631 (strain K); assay: as above; assay type: cell-based; conditions: Aspergillus flavus, 48 h, MIC-0, 48 h at 35° C., read-out: MIC
Experimental: as §1, §2, §5

[11] = tested on: Aspergillus nidulans ATCC 38163 (strain L); assay: as above; assay type: cell-based; conditions: Aspergillus nidulans, ATCC38163, 48 h, MIC-0, 48 h at 35° C., read-out: MIC
Experimental: as §1, §2, §5

[12] = tested on: C. albicans ATCC MYA-2876(S) (strain C); assay: MIC determination, in vitro antifungal assay (CLSI M27-A3); assay type: cell-based, Candida albicans; conditions: MIC-0, 48 h at 35° C.
Experimental: as §1, §2, §4

[13] = tested on: C. albicans ATCC MYA-1003(R) (strain G); assay: as above; assay type: cell-based, Candida albicans; conditions: MIC-0, 48 h at 35° C.
Experimental: as §1, §2, §4

[14] = Candida albicans, 48 h, read-out: MIC
[15] = Candida albicans, ATCC64124, 48 h, read-out: MIC
[16] = Candida albicans, ATCC10231, 48 h, read-out: MIC
[17] = Nakaseomyces glabratus, ATCC2001, 48 h, read-out: MIC
[18] = Pichia kudriavzevii, ATCC6258, 48 h, read-out: MIC

| Compound | MIC [1, 14] | MIC [2, 15] | MIC [3] | MIC [4, 14] | MIC [5, 16] | MIC [6] | MIC [7, 17] | MIC [8, 18] | MIC [9] | MIC [10] | MIC [11] | MIC [12, 14] | MIC [13, 14] | MIC [4] | MIC [7] | also measured |
| --- | --- | --- | --- | --- | --- | --- | --- | --- | --- | --- | --- | --- | --- | --- | --- | --- |
| COc1ccc(N/N=C(\C)c2ccc(-c3ccc(/C(C)=N/Nc4ccc(OC)cc4)cc3)cc2)cc1 [Compound 15c] | 7.8 to 15.6 µg/mL (≈ 16.3 to 32.6 µM) | 7.8 to 15.6 µg/mL (≈ 16.3 to 32.6 µM) | 31.3 µg/mL (≈ 65.4 µM) | 7.8 to 15.6 µg/mL (≈ 16.3 to 32.6 µM) | 7.8 to 15.6 µg/mL (≈ 16.3 to 32.6 µM) | > 31.3 µg/mL | 7.8 to 15.6 µg/mL (≈ 16.3 to 32.6 µM) | 7.8 to 15.6 µg/mL (≈ 16.3 to 32.6 µM) | > 31.3 µg/mL | > 31.3 µg/mL | > 31.3 µg/mL | 7.8 to 15.6 µg/mL (≈ 16.3 to 32.6 µM) | 7.8 to 15.6 µg/mL (≈ 16.3 to 32.6 µM) | 7.8 µg/mL (≈ 16.3 µM) | 7.8 µg/mL (≈ 16.3 µM) | MIC [1]: 15.6 µg/mL (≈ 32.6 µM); MIC [2]: 15.6 µg/mL (≈ 32.6 µM); MIC [5]: 15.6 µg/mL (≈ 32.6 µM); MIC [8]: 15.6 µg/mL (≈ 32.6 µM); MIC [12]: 15.6 µg/mL (≈ 32.6 µM); MIC [13]: 7.8 µg/mL (≈ 16.3 µM) |
| CC[C@H](C)C[C@H](C)CCCCCCCCC(=O)N[C@H]1C[C@@H](O)[C@@H](NCCN)NC(=O)[C@@H]2[C@@H](O)CCN2C(=O)[C@H]([C@H](O)CCN)NC(=O)[C@H]([C@H](O)[C@@H](O)c2ccc(O)cc2)NC(=O)[C@@H]2C[C@@H](O)CN2C(=O)[C@H]([C@@H](C)O)NC1=O [CAS, caspofungin, reference compound] | 0.12 µg/mL (≈ 0.11 µM) | 0.24 µg/mL (≈ 0.22 µM) | 0.12 µg/mL (≈ 0.11 µM) | 0.24 µg/mL (≈ 0.22 µM) | 0.975 µg/mL (≈ 0.892 µM) | 1.95 µg/mL (≈ 1.78 µM) | 0.06 µg/mL (≈ 0.0549 µM) | 0.48 µg/mL (≈ 0.439 µM) | > 31.3 µg/mL | > 31.3 µg/mL | > 31.3 µg/mL | 0.06 µg/mL (≈ 0.0549 µM) | 0.48 µg/mL (≈ 0.439 µM) |  |  |  |
| Fc1ccc(F)c(N/N=C/c2ccc(-c3cccc(/C=N/Nc4cc(F)ccc4F)c3)cc2)c1 [Compound 21a] | > 31.3 µg/mL | > 31.3 µg/mL | > 31.3 µg/mL | > 31.3 µg/mL | > 31.3 µg/mL | > 31.3 µg/mL | > 31.3 µg/mL | > 31.3 µg/mL | > 31.3 µg/mL | > 31.3 µg/mL | > 31.3 µg/mL | > 31.3 µg/mL | > 31.3 µg/mL |  |  |  |

Now from value to compound, other results behind:

| MIC [1, 14] | MIC [2, 15] | MIC [3] | MIC [4, 14] | MIC [5, 16] | MIC [6] | MIC [7, 17] | MIC [8, 18] | MIC [9] | MIC [10] | MIC [11] | MIC [12, 14] | MIC [13, 14] | MIC [4] | MIC [7] | Compound | also measured |
| --- | --- | --- | --- | --- | --- | --- | --- | --- | --- | --- | --- | --- | --- | --- | --- | --- |
| 31.3 µg/mL (≈ 73.4 µM) | 7.8 µg/mL (≈ 18.3 µM) | 15.6 µg/mL (≈ 36.6 µM) | > 31.3 µg/mL | 7.8 µg/mL (≈ 18.3 µM) | 15.6 µg/mL (≈ 36.6 µM) | > 31.3 µg/mL | 1.95 µg/mL (≈ 4.57 µM) | > 31.3 µg/mL | 3.9 µg/mL (≈ 9.14 µM) | 7.8 µg/mL (≈ 18.3 µM) | > 31.3 µg/mL | 7.8 µg/mL (≈ 18.3 µM) |  |  | Fc1ccccc1N/N=C/c1ccc(-c2cccc(/C=N/Nc3ccccc3F)c2)cc1 [Compound 10a] |  |
| > 31.3 µg/mL | 31.3 µg/mL (≈ 57.1 µM) | > 31.3 µg/mL | 7.8 µg/mL (≈ 14.2 µM) | 31.3 µg/mL (≈ 57.1 µM) | > 31.3 µg/mL | 7.8 µg/mL (≈ 14.2 µM) | > 31.3 µg/mL | > 31.3 µg/mL | 31.3 µg/mL (≈ 57.1 µM) | > 31.3 µg/mL | 31.3 µg/mL (≈ 57.1 µM) | 31.3 µg/mL (≈ 57.1 µM) | 7.8 µg/mL (≈ 14.2 µM) | 7.8 µg/mL (≈ 14.2 µM) | Brc1ccc(N/N=C/c2ccc(-c3cccc(/C=N/Nc4ccc(Br)cc4)c3)cc2)cc1 [Compound 19a] |  |
